Article PMC7996170, “Novel Method for Quantifying AhR-Ligand Binding Affinities Using Microscale Thermophoresis” (Biosensors, 2021)
Read-outs that look alike come from different tables or passages of the source.

Assays:
endogenous hAhR = biological target: endogenous hAhR; design: method as in PMID 2848187; settings: endogenous hAhR in hepatocyte cell lysates; read-out: equilibrium dissociation constant (Kd); cited from earlier work
[1] = biological target: T1, recombinant AhR-ARNT complex (Homo sapiens, UniProt P35869); test: Label-free microscale thermophoresis (MST) ligand binding
T1 construct: encompassing the bHLH-PAS A-PAS B domains (amino acid residues 23 to 475); His6 (N, cleaved yes); FleB (Yersinia flagellin subunit, residues 54 to 332, UniProt A1JSQ5) expression tag followed by HRV 3C site (N, cleaved yes); made in house; host or cells: E. coli BL21(DE3)

murine AhR = settings: higher affinity of murine AhR than human AhR; cited from earlier work
[2] = biological target: T1, recombinant AhR-ARNT complex; test: Competition radioligand binding assay ([3H]TCDD displacement) on purified recombinant AhR-ARNT; settings: for competition with [3H]TCDD (in words): 4 nM [3H]TCDD, increasing concentrations of unlabeled competitor
Protocol: Radioligand binding assays were performed as previously established. Briefly, for saturation experiments, 0.5 mg/mL of purified AhR-ARNT or ARNT protein was diluted in MDEG buffer (25 mM MOPS, 1 mM DTT, 1 mM EDTA, 10% glycerol, 20 mM molybdate, pH 7.5) and incubated with increasing concentrations of radioactively labeled [^3H]TCDD tracer. Reactions were supplemented with liver lysate of AhR-deficient mice (AhR^-/-, C57BL/6 background) to a final protein concentration of 5 mg/mL to reduce unspecific binding and adsorption of the tracer to plastic surfaces. Liver lysates were prepared in MDEG buffer by homogenization using the gentleMacs Dissociator (Miltenyi Biotec), followed by ultracentrifugation at 100,000× g and 4 °C for 1 h. Cytosolic fractions were collected, protein concentration determined by Bradford reaction (Protein Assay Kit, Pierce), and further diluted to a final protein concentration of 5 mg/mL in MDEG buffer. […] Subsequently, 30 μL of a Norit A charcoal suspension (100 mg/mL equilibrated in MDEG buffer) was added into each 200 µL of the reaction mixture. Samples were kept on ice for 15 min and centrifuged for another 15 min at 25,000× g and 4 °C. Following this, 150 μL of the supernatant was carefully transferred and radioactivity was measured in a liquid scintillation counter (Tri-Carb 3110TR, PerkinElmer). All samples were measured in triplicate. For competition assays, a constant concentration of [^3H]TCDD (4 nM final) was used, to which a serial dilution of unlabeled competitor molecule dissolved in DMSO was added in excess. All subsequent steps were carried out as described above. The specific binding was defined as the difference of radioactivity between the reactions supplemented with the recombinant protein and AhR-deficient (Ahr^-/-) mouse lysates. Analysis of the data and calculation of the binding constants Kd and receptor density Bmax were performed with GraphPad Prism 7 using a nonlinear regression fitting a saturation binding isotherm. For competition studies, the IC50 values were obtained by fitting a one-site competitive binding equation to the experimental data. Ki values were derived from IC50 using the Cheng–Prusoff equation [19].

[3] = biological target: T2, purified AhR-ARNT complex (recombinant hAhR23–475 with mARNT85–465) (Homo sapiens, UniProt P35869); test: Radioligand saturation binding assay with [3H]TCDD on purified recombinant AhR-ARNT; settings: 4 °C, 24 h
T2 construct: encompassing the bHLH-PAS A-PAS B domains (amino acid residues 23 to 475); His6 (N, cleaved yes); FleB (Yersinia flagellin subunit, residues 54 to 332, UniProt A1JSQ5) expression tag followed by HRV 3C site (N, cleaved yes); made in house; host or cells: E. coli BL21(DE3)
Protocol: Radioligand binding assays were performed as previously established. Briefly, for saturation experiments, 0.5 mg/mL of purified AhR-ARNT or ARNT protein was diluted in MDEG buffer (25 mM MOPS, 1 mM DTT, 1 mM EDTA, 10% glycerol, 20 mM molybdate, pH 7.5) and incubated with increasing concentrations of radioactively labeled [^3H]TCDD tracer. Reactions were supplemented with liver lysate of AhR-deficient mice (AhR^-/-, C57BL/6 background) to a final protein concentration of 5 mg/mL to reduce unspecific binding and adsorption of the tracer to plastic surfaces. Liver lysates were prepared in MDEG buffer by homogenization using the gentleMacs Dissociator (Miltenyi Biotec), followed by ultracentrifugation at 100,000× g and 4 °C for 1 h. Cytosolic fractions were collected, protein concentration determined by Bradford reaction (Protein Assay Kit, Pierce), and further diluted to a final protein concentration of 5 mg/mL in MDEG buffer. […] Following this, 150 μL of the supernatant was carefully transferred and radioactivity was measured in a liquid scintillation counter (Tri-Carb 3110TR, PerkinElmer). All samples were measured in triplicate. […] The specific binding was defined as the difference of radioactivity between the reactions supplemented with the recombinant protein and AhR-deficient (Ahr^-/-) mouse lysates. […]

[4] = cited from earlier work
mARNT = biological target: T3, mARNT (Mus musculus, UniProt P53762, C256S/DEL274-297/DEL351-358); test: Label-free MST on mARNT alone; type: binding; settings: Figure S3
T3 construct: Mouse ARNT (residues 85–465) was expressed as N-terminal His6-fusion protein; His6 (N); made in house; host or cells: E. coli BL21(DE3)
Protocol: Microscale thermophoresis (MST) experiments were performed according to the manufacturer’s instructions (NanoTemper Technologies GmbH) using a Monolith NT.LabelFree. In brief, 250 nM of purified AhR-ARNT proteins were diluted in assay buffer (20 mM HEPES pH 8.0, 200 mM NaCl, 5% glycerol, 5 mM DTT, and 0.1% Pluronic F-127) and incubated for 5 min, in the presence of a serial dilution of the different ligands (ligand solubilized in DMSO at a final constant concentration of 2%). After incubation, samples were filled into NT.LabelFree Zero Background MST Premium coated capillaries (NanoTemper Technologies GmbH) and measurements were taken at a constant temperature of 22 °C. MST traces were collected with an LED excitation power of 20% and an MST laser power of 20% and 40%. The MO.Control Analysis software (NanoTemper) was used to analyze the interaction affinity and the dissociation constant (Kd) for each ligand using the Kd fit model. In short, changes in the thermophoretic movement were depicted as changes in the normalized fluorescence ratio before and after heating (ΔFnorm [‰]) and plotted as a function of the ligand concentration. The resulting binding curve is fitted by the software using the best fitting method to derive binding constants and thus the Kd.

T1 sequence (P35869 23-475): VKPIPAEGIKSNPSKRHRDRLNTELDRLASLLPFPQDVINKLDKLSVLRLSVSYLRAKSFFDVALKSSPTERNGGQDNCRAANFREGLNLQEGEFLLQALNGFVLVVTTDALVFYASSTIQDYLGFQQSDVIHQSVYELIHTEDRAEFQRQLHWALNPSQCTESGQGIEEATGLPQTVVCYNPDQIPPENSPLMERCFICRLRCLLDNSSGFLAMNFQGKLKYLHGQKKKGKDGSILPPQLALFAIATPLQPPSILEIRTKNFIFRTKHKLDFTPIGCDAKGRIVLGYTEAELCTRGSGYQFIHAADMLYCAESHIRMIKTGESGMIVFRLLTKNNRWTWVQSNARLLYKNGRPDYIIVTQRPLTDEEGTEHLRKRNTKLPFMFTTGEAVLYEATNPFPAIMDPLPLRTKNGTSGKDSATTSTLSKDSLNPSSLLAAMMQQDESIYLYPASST
T1 sequence (P53762 with tags, fused parts or gaps C256S/DEL274-297/DEL351-358 partner): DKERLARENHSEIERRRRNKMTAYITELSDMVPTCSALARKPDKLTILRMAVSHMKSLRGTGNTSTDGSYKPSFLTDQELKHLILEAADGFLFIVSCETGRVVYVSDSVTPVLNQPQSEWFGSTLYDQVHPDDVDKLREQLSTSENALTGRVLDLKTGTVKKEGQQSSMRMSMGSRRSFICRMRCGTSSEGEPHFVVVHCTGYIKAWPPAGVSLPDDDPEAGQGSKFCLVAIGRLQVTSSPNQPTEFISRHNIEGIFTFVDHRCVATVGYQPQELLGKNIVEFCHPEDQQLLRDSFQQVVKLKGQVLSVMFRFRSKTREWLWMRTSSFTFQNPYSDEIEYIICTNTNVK
T2 sequence (P35869 23-475): as the sequence (P35869 23-475) above
T2 sequence (P53762 with tags, fused parts or gaps C256S/DEL274-297/DEL351-358 partner): as the sequence (P53762 with tags, fused parts or gaps C256S/DEL274-297/DEL351-358 partner) above
T3 sequence (P53762 with tags, fused parts or gaps C256S/DEL274-297/DEL351-358): as the sequence (P53762 with tags, fused parts or gaps C256S/DEL274-297/DEL351-358 partner) above

Clc1cc2c(cc1Cl)Oc1cc(Cl)c(Cl)cc1O2 [TCDD, 2,3,7,8-Tetrachlorodibenzo-p-dioxin]
Kd (endogenous hAhR): 2.7 to 4.2 nM
Kd [1]: 139 ± 99 nM
binding affinity of murine AhR relative to human AhR (murine AhR): ~10 fold
competition with [3H]TCDD (in words) ([2]; 24 h): only an initial competition
displacement of [3H]TCDD from AhR-ARNT by unlabeled competitor (in words) ([2]; increasing protein, constant [3H]TCDD, 48 h, Figure S2): displacement by unlabeled dioxin detectable
maximal binding capacity (Bmax) ([3]; [3H]TCDD saturation binding): 60.3 ± 17.3 pmoles/mg protein
Kd ([3]; [3H]TCDD tracer, 0.5 mg/mL protein, AhR-/- mouse liver lysate added): 39 ± 20 nM
solubility in water (in words) [4]: insolubility in water
ligand-induced differences in MST traces with mARNT alone (in words) (mARNT): not when mARNT was used alone

Oc1cccc2nc3ccccc3nc12 [1-HP, 1-Hydroxyphenazine]
Kd [1]: 943 ± 176 nM
Ki [2]: 9200 nM

O=Cc1c2[nH]c3ccccc3c2cc2[nH]c3ccccc3c12 [FICZ, 6-Formylindolo [3,2-b] carbazole]
competition with [3H]TCDD (in words) ([2]; 24 h): failed to see competition
stability in aqueous solution (in words) ([4]; tryptophan group): high instability

Cc1ccccc1N=Nc1ccc(NC(=O)c2ccnn2C)c(C)c1 [CH-223191, 2-Methyl-2H-pyrazole-3-carboxylic acid (2-methyl-4-o-tolylazo-phenyl)-amide]
Kd ([1]; 250 nM AhR-ARNT, 2% DMSO, 22 °C, label-free, read-out: Kd (MST)): 496 ± 82 nM
Ki ([2]; displacement of 4 nM [3H]TCDD, 24 h, 4 °C, read-out: Ki (from IC50 by Cheng–Prusoff)): 12200 nM
